Measured values reported in patent US20030139431A1 (priority 2001, published 2003).
Where a name gives a salt, the structure may show the parent alone.

Legend:
hNPFF2 [1] = biological target: T1, hNPFF2 (Homo sapiens, UniProt Q9Y5X5); test: Functional assay (agonist potency, intrinsic activity) at cloned human NPFF2 receptor; type: cell-based; conditions: for hNPFF2 IA (intrinsic activity): percent of maximum response elicited by neuropeptide FF, human NPFF2; for EC50: recombinant human NPFF2
T1 construct: expressed in transfected cells
T1 sequence (Q9Y5X5 103-522): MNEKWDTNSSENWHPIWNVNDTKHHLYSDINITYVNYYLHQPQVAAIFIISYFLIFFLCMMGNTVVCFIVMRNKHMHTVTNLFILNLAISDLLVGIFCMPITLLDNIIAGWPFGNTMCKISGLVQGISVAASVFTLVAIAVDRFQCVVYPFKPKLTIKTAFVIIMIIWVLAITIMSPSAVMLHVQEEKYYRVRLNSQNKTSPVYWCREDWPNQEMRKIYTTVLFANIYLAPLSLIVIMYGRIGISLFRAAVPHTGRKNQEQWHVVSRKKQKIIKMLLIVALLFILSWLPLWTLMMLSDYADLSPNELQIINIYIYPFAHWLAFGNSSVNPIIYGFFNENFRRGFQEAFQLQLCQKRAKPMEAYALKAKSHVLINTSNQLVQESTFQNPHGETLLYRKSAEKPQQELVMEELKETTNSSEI
Description: (§1) Intrinsic activity of a compound is measured as the percent of maximum response.

rNPFF1 [2] = biological target: T2, rNPFF1 (Rattus norvegicus, UniProt Q9EP86); test: Binding affinity at cloned recombinant rat NPFF1 receptor
T2 construct: expressed in transfected cells
T2 sequence (Q9EP86 whole entry): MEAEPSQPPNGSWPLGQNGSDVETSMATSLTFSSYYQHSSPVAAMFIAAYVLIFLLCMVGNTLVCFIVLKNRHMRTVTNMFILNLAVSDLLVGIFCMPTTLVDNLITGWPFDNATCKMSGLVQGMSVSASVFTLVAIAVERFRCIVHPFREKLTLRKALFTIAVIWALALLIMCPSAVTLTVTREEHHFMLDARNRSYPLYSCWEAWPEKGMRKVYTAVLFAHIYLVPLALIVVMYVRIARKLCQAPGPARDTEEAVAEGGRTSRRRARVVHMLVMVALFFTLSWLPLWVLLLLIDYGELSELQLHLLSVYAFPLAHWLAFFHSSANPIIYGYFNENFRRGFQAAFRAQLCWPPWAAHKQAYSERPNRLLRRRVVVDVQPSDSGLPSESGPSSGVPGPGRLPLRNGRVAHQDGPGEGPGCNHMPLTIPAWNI

rNPFF1 [3] = biological target: T2, rNPFF1; test: Functional assay (agonist potency, intrinsic activity) at cloned rat NPFF1 receptor; type: cell-based; conditions: for rNPFF1 IA (intrinsic activity): percent of maximum response elicited by neuropeptide FF, rat NPFF1; for EC50: recombinant rat NPFF1
Description: as §1

hNPFF1 [4] = biological target: T3, hNPFF1 (Homo sapiens, UniProt Q9GZQ6); test: Functional assay (agonist potency, intrinsic activity) at cloned human NPFF1 receptor; type: cell-based; conditions: for hNPFF1 IA (intrinsic activity): percent of maximum response elicited by neuropeptide FF, human NPFF1; for EC50: recombinant human NPFF1
T3 construct: expressed in transfected cells
T3 sequence (Q9GZQ6 whole entry): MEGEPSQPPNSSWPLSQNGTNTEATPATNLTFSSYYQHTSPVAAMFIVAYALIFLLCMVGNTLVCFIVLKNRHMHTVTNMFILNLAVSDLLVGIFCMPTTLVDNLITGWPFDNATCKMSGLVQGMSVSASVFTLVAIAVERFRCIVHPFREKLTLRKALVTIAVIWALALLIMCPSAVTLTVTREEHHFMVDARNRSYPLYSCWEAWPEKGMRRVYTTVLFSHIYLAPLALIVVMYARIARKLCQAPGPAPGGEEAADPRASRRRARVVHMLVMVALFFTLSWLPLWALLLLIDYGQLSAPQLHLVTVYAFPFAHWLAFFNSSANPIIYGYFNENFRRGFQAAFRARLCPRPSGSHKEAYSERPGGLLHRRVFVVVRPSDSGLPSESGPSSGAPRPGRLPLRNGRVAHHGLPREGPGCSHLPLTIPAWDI
Description: as §1

hNPFF2 [5] = biological target: T1, hNPFF2; test: Binding affinity at cloned recombinant human NPFF2 receptor
hNPFF1 [6] = biological target: T3, hNPFF1; test: Binding affinity at cloned recombinant human NPFF1 receptor
rNPFF2 [7] = biological target: T4, rNPFF2 (Rattus norvegicus, UniProt Q9EQD2); test: Binding affinity at cloned recombinant rat NPFF2 receptor
T4 construct: expressed in transfected cells
T4 sequence (Q9EQD2 whole entry): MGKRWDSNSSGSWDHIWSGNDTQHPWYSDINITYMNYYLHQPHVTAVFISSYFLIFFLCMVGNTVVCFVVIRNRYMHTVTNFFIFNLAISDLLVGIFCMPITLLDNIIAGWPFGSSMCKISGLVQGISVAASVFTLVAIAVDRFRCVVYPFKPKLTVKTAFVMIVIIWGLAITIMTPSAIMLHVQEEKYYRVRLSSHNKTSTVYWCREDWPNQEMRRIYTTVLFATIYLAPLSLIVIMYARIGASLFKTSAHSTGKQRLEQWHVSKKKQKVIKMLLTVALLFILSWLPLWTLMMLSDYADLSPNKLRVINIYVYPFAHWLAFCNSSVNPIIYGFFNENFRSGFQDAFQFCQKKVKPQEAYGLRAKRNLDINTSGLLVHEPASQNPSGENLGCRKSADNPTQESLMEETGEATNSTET

rNPFF2 [8] = biological target: T4, rNPFF2; test: Functional assay (agonist potency, intrinsic activity) at cloned rat NPFF2 receptor; type: cell-based; conditions: for rNPFF2 IA (intrinsic activity): percent of maximum response elicited by neuropeptide FF, rat NPFF2; for EC50: recombinant rat NPFF2
Description: as §1

[9] = system: distention induced contractions of the rat bladder; test: Distension-induced rhythmic contraction (DIRC) model, micturition reflex in anesthetized rats; type: in vivo; conditions: i.v.; for duration of inhibition of bladder activity (figure legend): dose not printed in legend
Description: The effects of compounds on the micturition reflex were assessed in the “distension-induced rhythmic contraction” (DIRC) model (also called “volume-induced rhythmic contraction” model) in rats, as described in previous publications (36, 38, 40). This model is widely considered to be predictive for the actions of drugs to treat human urge incontinence (also referred to as detrusor instability or unstable bladder). Examples of drugs that are active in this model which also are used therapeutically in humans include oxybutynin and baclofen (40); imipramine and nortriptyline (37); and nifedipine and terodiline (38).
Female Sprague Dawley rats weighing approximately 300 g were anesthetized with subcutaneous urethane (1.2 g/kg) The trachea was cannulated with PE240 tubing to provide a clear airway throughout the experiment. A midline abdominal incision was made and the left and right ureters were isolated. The ureters were ligated distally (to prevent escape of fluids from the bladder) and cannulated proximally with PE10 tubing. The incision was closed using 4-0 silk sutures, leaving the PE10 lines routed to the exterior for the elimination of urine. The bladder was canulated via the transurethral route using PE50 tubing inserted 2.5 cm beyond the urethral opening. This cannula was secured to the tail using tape and connected to a pressure transducer. To prevent leakage from the bladder, the cannula was tied tightly to the exterior urethral opening using 4-0 silk.
To initiate the micturition reflex, the bladder was first emptied by applying pressure to the lower abdomen, and then filled with normal saline in 100 μL increments (maximum=2 ml) until spontaneous bladder contractions occurred (typically 20-40 mmHg) at a rate of one contraction every 2 to 3 minutes. Once a regular rhythm was established, vehicle (saline) or test compounds were administered i.v. to examine their effects on bladder activity. The effect of a compound which inhibited the micturition reflex was expressed as its “disappearance time”, defined as the time between successive bladder contractions in the presence of the test compound minus the time between contractions before compound administration.

[10] = rat cloned NPFF receptors, based on IA and Ki

Row | SMILES | hNPFF2 IA (intrinsic activity) (hNPFF2 [1]) | EC50 (hNPFF2 [1]) [nM] | Ki (rNPFF1 [2]) [nM] | rNPFF1 IA (intrinsic activity) (rNPFF1 [3]) | EC50 (rNPFF1 [3]) [nM] | hNPFF1 IA (intrinsic activity) (hNPFF1 [4]) | EC50 (hNPFF1 [4]) [nM] | Ki (hNPFF2 [5]) [nM] | Ki (hNPFF1 [6]) [nM] | Ki (rNPFF2 [7]) [nM] | rNPFF2 IA (intrinsic activity) (rNPFF2 [8]) [% NPFF] | EC50 (rNPFF2 [8]) [nM] | melting point | classification as agonist or antagonist at NPFF1 (rNPFF1 [3]; [10]) | classification as agonist or antagonist at NPFF2 (rNPFF2 [8]; [10]) | disappearance time ([9]; 1 mg/kg) [min] | inhibition of distention induced contractions of the rat bladder ([9]; 1 mg/kg) | duration of inhibition of bladder activity (figure legend) [9] [min] | disappearance time ([9]; 3 mg/kg) [min] | inhibition of distention induced contractions of the rat bladder ([9]; 3 mg/kg)
1 | CCCCCCc1ccc2nc(NC(=N)N)cc(C)c2c1 [Compound 5003, N-(6-hexyl-4-methyl-2-quinolinyl)guanidine] | 45% NPFF | 3160 | 532 | 27% NPFF | 440 | Inactive | > 10000 | 1170 | 152 | 4420 | 57 | 9990 | – | – | – | – | – | – | – | –
2 | Cc1nc(NC(=N)N)nc2cc3c(cc12)CCC3 [Compound 1038, N-(4-methyl-7,8-dihydro-6H-cyclopenta[g]quinazolin-2-yl)guanidine] | – | – | 95 | Inactive | > 10000 | – | – | – | – | 602 | 74 | 48 | 295 to 298 °C (dec.) | – | – | – | – | – | – | –
3 | Cc1cc(NC(=N)N)nc2ccc(Cl)cc12 [Compound 4005, N-(6-chloro-4-methyl-2-quinolinyl)guanidine] | – | – | 25 | Inactive | > 10000 | – | – | 123 | 24 | 282 | 61 | 389 | – | – | – | 35 | complete inhibition | 35 | – | –
4 | Cc1nc(NC(=N)N)nc2cc(OCc3ccccc3)ccc12 (as salt: salt) [Compound 1006, N-[7-(benzyloxy)-4-methyl-2-quinazolinyl]guanidine] | – | – | – | – | – | – | – | – | – | – | – | – | 215 to 217 °C (dec.) | – | – | – | – | – | – | –
5 | Cc1nc(NC(=N)N)nc2cc(C(C)(C)C)ccc12 [Compound 1022, N-[7-(tert-butyl)-4-methyl-2-quinazolinyl]guanidine] | – | – | 126 | 19% NPFF | 3160 | – | – | – | – | 602 | 81 | 190 | 195 to 198 °C (dec.) | – | – | – | – | – | – | –
6 | Cc1ccc2c(C)nc(NC(=N)N)nc2c1 [Compound 3001, N-(4,7-dimethyl-2-quinazolinyl)guanidine] | Inactive | > 10000 | 50 | – | – | Inactive | > 10000 | 1720 | 46 | 1220 | – | – | – | antagonists | antagonists | – | – | – | – | –
7 | Cc1cc2nc(NC(=N)N)nc(C)c2cc1O (as salt: salt) [Compound 1017, N-(6-hydroxy-4,7-dimethyl-2-quinazolinyl)guanidine] | – | – | – | – | – | – | – | – | – | – | – | – | 246 to 248 °C (dec.) | – | – | – | – | – | – | –

Further compounds by falling Ki (rNPFF1 [2]), results first:

Row | hNPFF2 IA (intrinsic activity) (hNPFF2 [1]) | EC50 (hNPFF2 [1]) [nM] | Ki (rNPFF1 [2]) [nM] | rNPFF1 IA (intrinsic activity) (rNPFF1 [3]) | EC50 (rNPFF1 [3]) [nM] | hNPFF1 IA (intrinsic activity) (hNPFF1 [4]) | EC50 (hNPFF1 [4]) [nM] | Ki (hNPFF2 [5]) [nM] | Ki (hNPFF1 [6]) [nM] | Ki (rNPFF2 [7]) [nM] | rNPFF2 IA (intrinsic activity) (rNPFF2 [8]) [% NPFF] | EC50 (rNPFF2 [8]) [nM] | melting point | classification as agonist or antagonist at NPFF1 (rNPFF1 [3]; [10]) | classification as agonist or antagonist at NPFF2 (rNPFF2 [8]; [10]) | SMILES | disappearance time ([9]; 1 mg/kg) [min] | inhibition of distention induced contractions of the rat bladder ([9]; 1 mg/kg) | duration of inhibition of bladder activity (figure legend) [9] [min] | disappearance time ([9]; 3 mg/kg) [min] | inhibition of distention induced contractions of the rat bladder ([9]; 3 mg/kg)
8 | 69% NPFF | 314 | 11 | Inactive | > 10000 | Inactive | > 10000 | 232 | 50 | 308 | 84 | 125 | – | – | – | CCc1ccc2nc(NC(=N)N)cc(C)c2c1 [Compound 4002, N-(6-ethyl-4-methyl-2-quinolinyl)guanidine] | – | – | – | – | –
9 | 84% NPFF | 625 | 8 | 71% NPFF | 242 | Inactive | – | 376 | 50 | 221 | 103 | 97 | – | – | – | CCCCCc1ccc2nc(NC(=N)N)nc(C)c2c1 [Compound 2001, N-(4-methyl-6-pentyl-2-quinazolinyl)guanidine] | – | – | – | – | –
10 | Inactive | > 10000 | 7 | Inactive | > 10000 | Inactive | > 10000 | 91 | 13 | 185 | 32 | 269 | – | – | – | Cc1ccc2c(C)cc(NC(=N)N)nc2c1 [Compound 4006, N-(4,7-dimethyl-2-quinolinyl)guanidine] | – | – | 12 | 12 | complete inhibition
11 | 43% NPFF | 4110 | 4 | Inactive | > 10000 | Inactive | > 10000 | 2920 | 228 | 1020 | 35 | 3160 | – | – | – | Cc1nc(NC(=N)N)nc2cc(-c3ccccc3)ccc12 [Compound 1023, N-(4-methyl-7-phenyl-2-quinazolinyl)guanidine] | – | – | – | – | –
